Measurements published in patent publication US12649733B2, “3,6-diamino-pyridazin-3-yl derivatives, pharmaceutical compositions containing them and their uses as pro-apoptotic agents” (LES LABORATOIRES SERVIER, priority 2019, dated 2026).

Legend:
H146 cells = assay: H146 cell viability, MTT assay; format: cell-based; conditions: 48 h exposure
How it was run: (§1)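 Viability read by MTT reduction (OD 540 nm after overnight SDS/HCl lysis) after 48 h compound treatment of cells in RPMI 1640/10% FBS. Triplicates at nine concentrations, 3.16-fold apart; four-parameter curve fitting yields IC50.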

Bcl-xL protein = target: T1, Bcl-xL protein (Homo sapiens, UniProt Q07817, N197C); assay: Fluorescence quenching assay (PUMA peptide displacement); format: binding; conditions: 1 nM protein, 400 nM peptide, 2 hours at 23° C.; KI determined from IC50
T1 construct: (2-197)[N197C]; His-His (two His8 stretches joined by a Gly/Ala/Ser/Thr linker)
T1 sequence (Q07817 2-197 N197C): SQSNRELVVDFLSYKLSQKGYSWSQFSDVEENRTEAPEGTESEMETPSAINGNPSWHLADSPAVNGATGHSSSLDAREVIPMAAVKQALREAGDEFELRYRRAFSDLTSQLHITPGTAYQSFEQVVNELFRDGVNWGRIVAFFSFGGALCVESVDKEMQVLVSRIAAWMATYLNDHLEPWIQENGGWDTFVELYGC
Text: Fluorescence quenching assay measures the change in fluorescence intensity of C-terminally Cy5-labeled BCL-xL protein, His-His-(EK)-hs ? (2-197)[N197C] (UniProtKB® primary accession number Q07817-1) having an amino acid sequence (SEQ ID:03): [[…] […] […] […] […]] which is linked in C-terminal region to the amino acid X which corresponds to a cysteine labeled on the sulfur with Sulfo-Cyanine5 from Lumiprobe GmbH catalogue number 13380, upon binding of a C-terminally labeled peptide derived from PUMA (UniProtKB® primary accession number Q9BXH1) having an aminoacid sequence (SEQ ID:04): [[…]] which is linked in C-terminal region to the amino acid X′ where X′ is cysteine labeled on the sulfur with TQ5WS from AAT Bioquest catalogue number 2079.
The addition of a compound which binds competitively to the same site as the peptide will result in an increase in the fluorescence intensity of the protein due to displacement of the fluorescence quencher.
An 11-point serial dilution of each compound was prepared in DMSO the final buffer conditions were 10 mM 4-(2-hydroxyethyl)-1-piperazineethanesulfonic acid [HEPES], 150 mM NaCl, 0.05% Tween 20, pH 7.4 and 5% DMSO. The final protein concentration in the assay was 1 nM with the peptide present at 400 nM. The experiments were incubated for 2 hours at 23° C. before fluorescence intensity was measured on a Biotek SynergyNeo plate reader (Excitation 620 nm, emission 680 nm). […] The KI values were determined from the IC50 values according to Cer et al, Nucleic Acids Res, 2009, Jul. 1: 37(WebServer issue): W441-W445.

MOLT-4 cells = assay: MOLT-4 cell viability, MTT assay; format: cell-based; conditions: 48 h exposure
How it was run: as §1

Compound	IC50 (H146 cells) [nM]	Ki (Bcl-xL protein) [nM]	IC50 (MOLT-4 cells; Homo sapiens, MOLT-4, 48 h) [nM]	IC50 (MOLT-4 cells) [nM]	IC50 (H146 cells; Homo sapiens, NCI-H146, 48 h) [nM]
Cc1cc(N(C)c2nc(C(=O)O)c(CCCOc3ccc(C#CC(C)N4CCOCC4)cc3F)s2)nnc1Nc1nc2ccccc2s1 (single isomer, unassigned) [Example 206, 2-[[6-(1,3-Benzothiazol-2-ylamino)-5-methyl-pyridazin-3-yl]-methyl-amino]-5-[3-[2-fluoro-4-((3R or 3S)-morpholinobut-1-ynyl)phenoxy]propyl]thiazole-4-carboxylic acid]	15	0.009	1.48		
Cc1cc(N(C)c2nc(C(=O)O)c(CCCOc3ccc(C#CC(C)N4CCOCC4)cc3F)s2)nnc1Nc1nc2ccccc2s1 (single isomer, unassigned) [Example 208, 2-[[6-(1,3-Benzothiazol-2-ylamino)-5-methyl-pyridazin-3-yl]-methyl-amino]-5-[3-[2-fluoro-4-((3S or 3R)-morpholinobut-1-ynyl)phenoxy]propyl]thiazole-4-carboxylic acid]	7.33	0.0088		0.753	
Cc1cc(N(CCCCN2CCC(N)CC2)c2nc(C(=O)O)c(CCCOc3ccc(C#CCN(C)C)cc3F)s2)nnc1Nc1nc2ccccc2s1 [Example 175, 2-[4-(4-Amino-1-piperidyl)butyl-[6-(1,3-benzothiazol-2-ylamino)-5-methyl-pyridazin-3-yl]amino]-5-[3-[4-[3-(dimethylamino)prop-1-ynyl]-2-fluoro-phenoxy]propyl]thiazole-4-carboxylic acid]		0.0011	204		75
CCN(CC)CCNCCCCN(c1cc(C)c(Nc2nc3ccccc3s2)nn1)c1nc(C(=O)O)c(CCCOc2ccc(C#CCN(C)C)cc2F)s1 [Example 176, 2-[[6-(1,3-Benzothiazol-2-ylamino)-5-methyl-pyridazin-3-yl]-[4-[2-(diethylamino)ethylamino]butyl]amino]-5-[3-[4-[3-(dimethylamino)prop-1-ynyl]-2-fluoro-phenoxy]propyl]thiazole-4-carboxylic acid]		0.0011	76.2		124
Cc1cc(N(CCCCCN2CCC(N)CC2)c2nc(C(=O)O)c(CCCOc3ccc(C#CCN(C)C)cc3F)s2)nnc1Nc1nc2ccccc2s1 [Example 177, 2-[5-(4-Amino-1-piperidyl)pentyl-[6-(1,3-benzothiazol-2-ylamino)-5-methyl-pyridazin-3-yl]amino]-5-[3-[4-[3-(dimethylamino)prop-1-ynyl]-2-fluoro-phenoxy]propyl]thiazole-4-carboxylic acid]		0.003	225		36.3
CCN(CC)CCNCCCCCN(c1cc(C)c(Nc2nc3ccccc3s2)nn1)c1nc(C(=O)O)c(CCCOc2ccc(C#CCN(C)C)cc2F)s1 [Example 182, 2-[[6-(1,3-Benzothiazol-2-ylamino)-5-methyl-pyridazin-3-yl]-[5-[2-(diethylamino)ethylamino]pentyl]amino]-5-[3-[4-[3-(dimethylamino)prop-1-ynyl]-2-fluoro-phenoxy]propyl]thiazole-4-carboxylic acid]		0.0074	129		199
COC(COc1ccc(C#CCN(C)C)cc1F)Cc1sc(N(C)c2cc(C)c(Nc3nc4ccccc4s3)nn2)nc1C(=O)O (centres unmarked) [Example 183, 2-({6-[(1,3-Benzothiazol-2-yl)amino]-5-methylpyridazin-3-yl}(methyl)amino)-5-(3-{4-[3-(dimethylamino)prop-1-yn-1-yl]-2-fluorophenoxy}-2-methoxypropyl)-1,3-thiazole-4-carboxylic acid]		0.0078	46.5		187
Cc1cc(N(CCCCN2CCNCC2)c2nc(C(=O)O)c(CCCOc3ccc(C#CCN(C)C)cc3F)s2)nnc1Nc1nc2ccccc2s1 [Example 184, 2-[[6-(1,3-Benzothiazol-2-ylamino)-5-methyl-pyridazin-3-yl]-(4-piperazin-1-ylbutyl)amino]-5-[3-[4-[3-(dimethylamino)prop-1-ynyl]-2-fluoro-phenoxy]propyl]thiazole-4-carboxylic acid]		0.0036	184		107
CNC/C=C/c1ccc(OCCCc2sc(N(CCCCO)c3cc(C)c(Nc4nc5ccccc5s4)nn3)nc2C(=O)O)c(F)c1 [Example 185, 2-[[6-(1,3-Benzothiazol-2-ylamino)-5-methyl-pyridazin-3-yl]-(4-hydroxybutyl)amino]-5-[3-[2-fluoro-4-[(E)-3-(methylamino)prop-1-enyl]phenoxy]propyl]thiazole-4-carboxylic acid]		0.0012	16.8		7
CNCCCc1ccc(OCCCc2sc(N(CCCCO)c3cc(C)c(Nc4nc5ccccc5s4)nn3)nc2C(=O)O)c(F)c1 [Example 186, 2-[[6-(1,3-Benzothiazol-2-ylamino)-5-methyl-pyridazin-3-yl]-(4-hydroxybutyl)amino]-5-[3-[2-fluoro-4-[3-(methylamino)propyl]phenoxy]propyl]thiazole-4-carboxylic acid]		0.001	85.3		16.9
Cc1cc(N(CCCCCNCCN2CCCCC2)c2nc(C(=O)O)c(CCCOc3ccc(C#CCN(C)C)cc3F)s2)nnc1Nc1nc2ccccc2s1 [Example 187, 2-[[6-(1,3-Benzothiazol-2-ylamino)-5-methyl-pyridazin-3-yl]-[5-[2-(1-piperidyl)ethylamino]pentyl]amino]-5-[3-[4-[3-(dimethylamino)prop-1-ynyl]-2-fluoro-phenoxy]propyl]thiazole-4-carboxylic acid]		0.0025	103		23400
CNCCCCN(c1cc(C)c(Nc2nc3ccccc3s2)nn1)c1nc(C(=O)O)c(CCCOc2ccc(C#CCN(C)C)cc2F)s1 [Example 188, 2-[[6-(1,3-Benzothiazol-2-ylamino)-5-methyl-pyridazin-3-yl]-[4-(methylamino)butyl]amino]-5-[3-[4-[3-(dimethylamino)prop-1-ynyl]-2-fluoro-phenoxy]propyl]thiazole-4-carboxylic acid]		0.0018	3410		5.44
Cc1cc(N(CCCCCN2CCNCC2)c2nc(C(=O)O)c(CCCOc3ccc(C#CCN(C)C)cc3F)s2)nnc1Nc1nc2ccccc2s1 [Example 189, 2-[[6-(1,3-Benzothiazol-2-ylamino)-5-methyl-pyridazin-3-yl]-(5-piperazin-1-ylpentyl)amino]-5-[3-[4-[3-(dimethylamino)prop-1-ynyl]-2-fluoro-phenoxy]propyl]thiazole-4-carboxylic acid]		0.0074	171		94.8
CNCCN(C)CCCCCN(c1cc(C)c(Nc2nc3ccccc3s2)nn1)c1nc(C(=O)O)c(CCCOc2ccc(C#CCN(C)C)cc2F)s1 [Example 190, 2-[[6-(1,3-Benzothiazol-2-ylamino)-5-methyl-pyridazin-3-yl]-[5-[methyl-[2-(methylamino)ethyl]amino]pentyl]amino]-5-[3-[4-[3-(dimethylamino)prop-1-ynyl]-2-fluoro-phenoxy]propyl]thiazole-4-carboxylic acid]		0.0032	54.9		78.3
Cc1cc(N(CCCCCN)c2nc(C(=O)O)c(CCCOc3ccc(C#CCN(C)C)cc3F)s2)nnc1Nc1nc2ccccc2s1 [Example 191, 2-[5-Aminopentyl-[6-(1,3-benzothiazol-2-ylamino)-5-methyl-pyridazin-3-yl]amino]-5-[3-[4-[3-(dimethylamino)prop-1-ynyl]-2-fluoro-phenoxy]propyl]thiazole-4-carboxylic acid]		0.0028	2200		83.8
Cc1cc(N(CCCCN)c2nc(C(=O)O)c(CCCOc3ccc(C#CCN(C)C)cc3F)s2)nnc1Nc1nc2ccccc2s1 [Example 192, 2-[4-Aminobutyl-[6-(1,3-benzothiazol-2-ylamino)-5-methyl-pyridazin-3-yl]amino]-5-[3-[4-[3-(dimethylamino)prop-1-ynyl]-2-fluoro-phenoxy]propyl]thiazole-4-carboxylic acid]		0.0029	96.4		11.9
Cc1cc(N(CCCC(O)C[N+](C)(C)CCCS(=O)(=O)[O-])c2nc(C(=O)O)c(CCCOc3ccc(/C=C/C=O)cc3F)s2)nnc1Nc1nc2ccccc2s1 (centres unmarked) [Example 228, 3-[[5-[[6-(1,3-Benzothiazol-2-ylamino)-5-methyl-pyridazin-3-yl]-[4-carboxy-5-[3-[2-fluoro-4-[(E)-3-oxoprop-1-enyl]phenoxy]propyl]thiazol-2-yl]amino]-2-hydroxy-pentyl]-dimethyl-ammonio]propane-1-sulfonate]		0.22			> 30000
